Assay results published in patent US9464092B2, “Transient protection of normal cells during chemotherapy” (G1 Therapeutics, Inc., priority 2013, dated 2016).

Legend:
Assay type in all cases: biochemical
[1] = target: CDK4/CyclinD1 (Homo sapiens (Human), UniProt P11802); assay: CDK4/CyclinD1 kinase assay (Nanosyn, Caliper microfluidic); details: Table 2; read-out: CDK4/CycD1 IC50
Procedure: (§1) Selected compounds disclosed herein were tested in CDK4/cyclinD1, CDK6/CycD3 CDK2/CycA and CDK2/cyclinE kinase assays by Nanosyn (Santa Clara, Calif.) to determine their inhibitory effect on these CDKs. The assays were performed using microfluidic kinase detection technology (Caliper Assay Platform). The compounds were tested in 12-point dose-response format in singlicate at Km for ATP. Phosphoacceptor substrate peptide concentration used was 1 μM for all assays and Staurosporine was used as the reference compound for all assays. Specifics of each assay are as described below:
CDK4/CyclinD1: Enzyme concentration: 1 nM; ATP concentration: 200 μM; Incubation time: 10 hr.

[2] = target: CDK2/CyclinE (Homo sapiens (Human), UniProt P24941); assay: CDK2/CyclinE kinase assay (Nanosyn, Caliper microfluidic); details: Table 2; for IC50: read-out: CDK2/CycE IC50
Procedure: as §1, with “assays.” for “assays. Specifics of each assay are as described below:”

[3] = target: CDK2/CyclinA (Homo sapiens (Human), UniProt P24941); assay: CDK2/CyclinA kinase assay (Nanosyn, Caliper microfluidic); details: Table 2; for IC50: read-out: CDK2/CycA IC50
Procedure: as §1
CDK2/CyclinA: Enzyme concentration: 0.2 nM; ATP concentration: 50 μM; Incubation time: 3 hr.

CDK4/CyclinD1, sequence (P11802 whole entry, species assumed): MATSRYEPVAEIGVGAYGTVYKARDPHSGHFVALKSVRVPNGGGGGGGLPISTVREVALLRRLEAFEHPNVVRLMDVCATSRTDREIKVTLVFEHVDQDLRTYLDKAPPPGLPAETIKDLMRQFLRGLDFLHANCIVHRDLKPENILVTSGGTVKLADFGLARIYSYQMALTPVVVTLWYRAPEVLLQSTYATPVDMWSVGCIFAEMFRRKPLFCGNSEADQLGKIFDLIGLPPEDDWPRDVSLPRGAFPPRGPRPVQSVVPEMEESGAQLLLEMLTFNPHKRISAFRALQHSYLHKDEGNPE
CDK4/CyclinD1, sequence (P24385 whole entry partner, species assumed): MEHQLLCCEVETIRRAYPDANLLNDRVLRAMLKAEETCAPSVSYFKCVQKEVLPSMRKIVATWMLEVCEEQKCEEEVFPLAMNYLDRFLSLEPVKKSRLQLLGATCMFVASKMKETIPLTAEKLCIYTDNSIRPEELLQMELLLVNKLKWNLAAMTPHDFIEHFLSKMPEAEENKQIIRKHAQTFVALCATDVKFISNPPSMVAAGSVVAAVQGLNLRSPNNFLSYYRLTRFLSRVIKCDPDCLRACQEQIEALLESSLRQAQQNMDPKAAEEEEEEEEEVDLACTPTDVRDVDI

SMILES	IC50 [1] [nM]	Fold Selectivity (CDK2/CycE/CDK4) [2]	IC50 [2] [nM]	Fold Selectivity (CDK2/CycA/CDK4) [3]	IC50 [3] [nM]
CC(C)N1CCN(c2ccc(Nc3ncc4cc5n(c4n3)C3(CCCCC3)CNC5=O)nc2)C[C@@H]1C [AA]	0.5	13319	6100	10109	4630
CC1(C)CN(c2ccc(Nc3ncc4cc5n(c4n3)C3(CCCCC3)CNC5=O)nc2)CCN1C1CC1 [BB]	0.8	2017	1680	603	502
C[C@H]1CN(c2ccc(Nc3ncc4cc5n(c4n3)C3(CCCCC3)CNC5=O)nc2)CCN1CC1CC1 [B]	0.4	6862	3040	4266	1890
CC(C)(C)CCN1CCN(c2ccc(Nc3ncc4cc5n(c4n3)C3(CCCC3)CNC5=O)nc2)CC1(C)C [CCC]	2	1074	2170	226	457
C[C@H](O)CN1CCN(c2ccc(Nc3ncc4cc5n(c4n3)C3(CCCCC3)CNC5=O)nc2)C[C@@H]1C [C]	1.4	1333	1920	428	616
CC(C)(O)CN1CCN(c2ccc(Nc3ncc4cc5n(c4n3)C3(CCCC3)CNC5=O)nc2)CC1 [EEE]	2.3	1266	2950	405	943
CC(C)C1CN(c2ccc(Nc3ncc4cc5n(c4n3)C3(CCCCC3)CNC5=O)nc2)CCN1 (stereo not drawn) [E]	1	688	695	202	204
CC(C)N1CCN(c2ccc(Nc3ncc4cc5n(c4n3)C3(CCCC3)CNC5=O)nc2)CC1C (stereo not drawn) [GGG]	13.7	555	7610		
O=C1NCC2(CCCC2)n2c1cc1cnc(Nc3ccc(N4CCC(N5CCCCC5)CC4)cn3)nc12 [HHH]	6.8	419	2840		
CC(C)N1CCN(c2ccc(Nc3ncc4cc5n(c4n3)C3(CCCC3)CNC5=O)nc2)CC1 [III]	6	626	3770		
O=C1NCC2(CCCCC2)n2c1cc1cnc(Nc3ccc(N4CCC(N5CCCCC5)CC4)cn3)nc12 [N]	1	1500	1500		
CN(C)C1CCN(c2ccc(Nc3ncc4cc5n(c4n3)C3(CCCCC3)CNC5=O)nc2)CC1 [O]				1245	3150
O=C1NCC2(CCCC2)n2c1cc1cnc(Nc3ccc(N4CCNCC4)cn3)nc12 [QQQ]	10.5	1057	11100		
CN(C)C1CCN(c2ccc(Nc3ncc4cc5n(c4n3)C3(CCCC3)CNC5=O)nn2)CC1 [TTT]	3.4	899	3030		
CC(C)[C@H]1CNC(=O)c2cc3cnc(Nc4ccc(N5CCNCC5)cn4)nc3n21 [UUU]	18	914	16500		
CCN(CC)C1CCN(c2ccc(Nc3ncc4cc5n(c4n3)C3(CCCC3)CNC5=O)nc2)C1 (stereo not drawn) [UU]	7.3	542	3960		
CC(C)C[C@@H]1CNC(=O)c2cc3cnc(Nc4ccc(N5CCNCC5)cn4)nc3n21 [WWW]	18.5	135	2500		
CC(C)C[C@@H]1CNC(=O)c2cc3cnc(Nc4ccc(N5CCN(C)CC5)cn4)nc3n21 [XXX]	11.4	581	6620		
CN(C)C1CCN(c2ccc(Nc3ncc4cc5n(c4n3)C3(CCCC3)CNC5=O)nc2)CC1 [YY]	4.6	1490	6900		
CN1CCN(c2ccc(Nc3ncc4cc5n(c4n3)C3(CCCC3)CNC5=O)nc2)CC1 [ZZ]	10.5	949	9960		

The remaining lines, values ahead:

IC50 [1] [nM]	Fold Selectivity (CDK2/CycE/CDK4) [2]	IC50 [2] [nM]	Fold Selectivity (CDK2/CycA/CDK4) [3]	IC50 [3] [nM]	SMILES
4.2	1516	6350	754	3160	C[C@H](O)CN1CCN(c2ccc(Nc3ncc4cc5n(c4n3)C3(CCCCC3)CNC5=O)nc2)CC1 [A]
1.6	791	1250	478	755	CCN(CC)C1CCN(c2ccc(Nc3ncc4cc5n(c4n3)C3(CCCCC3)CNC5=O)nc2)CC1 [CC]
9.5	986	9350			C[C@@H]1CN(c2ccc(Nc3ncc4cc5n(c4n3)C3(CCCC3)CNC5=O)nc2)C[C@H](C)N1 [DDD]
1.9	5200	9620	4519	8360	C[C@@H]1CN(c2ccc(Nc3ncc4cc5n(c4n3)C3(CCCCC3)CNC5=O)nc2)C[C@H](C)N1C [DD]
0.9	3779	3480	1629	1500	CN1CCN(c2ccc(Nc3ncc4cc5n(c4n3)C3(CCCCC3)CNC5=O)nc2)CC1(C)C [D]
3.8	432	1660	289	1110	CC(C)N1CCN(Cc2ccc(Nc3ncc4cc5n(c4n3)C3(CCCCC3)CNC5=O)nc2)CC1 [EE]
1.2	3949	4620	1197	1400	CCN1[C@H](C)CN(c2ccc(Nc3ncc4cc5n(c4n3)C3(CCCCC3)CNC5=O)nc2)C[C@@H]1C [FF]
1.5	419	628	127	190	O=C1NCC2(CCCCC2)n2c1cc1cnc(Nc3ccc(N4CCN(C5CCC5)CC4)cn3)nc12 [F]
1.5	1767	2580	442	646	CC1CN(c2ccc(Nc3ncc4cc5n(c4n3)C3(CCCCC3)CNC5=O)nc2)CCN1CCC(C)(C)C (stereo not drawn) [G]
1.7	766	1280	159	265	O=C1NCC2(CCCCC2)n2c1cc1cnc(Nc3ccc(N4CCN(CC5CC5)CC4)cn3)nc12 [HH]
1.5	1013	1520	251	377	CC1(C)CN(c2ccc(Nc3ncc4cc5n(c4n3)C3(CCCCC3)CNC5=O)nc2)CCN1CC1CC1 [H]
1.4	204	288			CCN(CC)C1CCN(C(=O)c2ccc(Nc3ncc4cc5n(c4n3)C3(CCCCC3)CNC5=O)nc2)C1 (stereo not drawn) [JJ]
2.6	1758	4500			CC(C)N1CCN(c2ccc(Nc3ncc4cc5n(c4n3)C3(CCCC3)CNC5=O)nn2)CC1 [RRR]
